Measurements: the supplement of paper PMC10307832

Experiments:
Assay in all cases: relative viability (nuclei count vs DMSO), 5 days (fraction); higher = more cells survive
kb NB 142-70 + Alpelisib = compound: C1CSC2=C(C(=O)N1)SC3=C2C=C(C=C3)O [kb NB 142-70] + Cc1nc(NC(=O)N2CCC[C@H]2C(N)=O)sc1-c1ccnc(C(C)(C)C(F)(F)F)c1 [Alpelisib] (partner 2 µM)
Procedure, shortened: (§1)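 Lung cancer cell lines were seeded in 1536-well plates and dosed by pin tool the next day, with either a single drug or a fixed anchor-drug dose combined with five library-drug doses (not always all listed) spaced in √10 steps. Five days later, one step fixed the cells and stained their nuclei (final 0.05% Triton X-100, 1% formaldehyde, 1 ug/ml Hoechst), and nuclei were counted on 4× images. Relative viability is the nuclei count in treated wells divided by the count in vehicle wells, and each value is the median of duplicate plates.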

[1] = compound: NCC(=O)Nc1ccc(-n2nc(C(F)(F)F)cc2-c2ccc3c(ccc4ccccc43)c2)cc1 + Nc1nc2[nH]cc(CCc3ccc(C(=O)N[C@@H](CCC(=O)O)C(=O)O)cc3)c2c(=O)[nH]1 [Pemetrexed] (partner 0.2 µM)
Procedure, shortened: as §1

[2] = compound: C1CSC2=C(C(=O)N1)SC3=C2C=C(C=C3)O [kb NB 142-70] + C[C@]1(O)C[C@@H](c2nc(-c3ccc4ccc(-c5ccccc5)nc4c3)c3c(N)nccn32)C1 [Linsitinib] (partner 1 µM)
Procedure, shortened: as §1

[3] = compound: NCC(=O)Nc1ccc(-n2nc(C(F)(F)F)cc2-c2ccc3c(ccc4ccccc43)c2)cc1 + CS(=O)(=O)N1CCN(Cc2cc3nc(-c4cccc5[nH]ncc45)nc(N4CCOCC4)c3s2)CC1 [Pictilisib] (partner 1 µM)
Procedure, shortened: as §1

| Cell Line | relative viability (kb NB 142-70 + Alpelisib; first compound 0.1 µM) | relative viability (kb NB 142-70 + Alpelisib; first compound 1 µM) | relative viability (kb NB 142-70 + Alpelisib; first compound 3.162 µM) | relative viability ([1]; first compound 0.02 µM) | relative viability ([1]; first compound 0.06325 µM) | relative viability ([1]; first compound 0.2 µM) | relative viability ([1]; first compound 0.6325 µM) | relative viability ([1]; first compound 2 µM) | relative viability ([2]; first compound 0.1 µM) | relative viability ([2]; first compound 1 µM) | relative viability ([2]; first compound 3.162 µM) | relative viability ([3]; first compound 0.02 µM) | relative viability ([3]; first compound 0.06325 µM) | relative viability ([3]; first compound 0.2 µM) | relative viability ([3]; first compound 0.6325 µM) | relative viability ([3]; first compound 2 µM) |
| --- | --- | --- | --- | --- | --- | --- | --- | --- | --- | --- | --- | --- | --- | --- | --- | --- |
| LXF-289 | 1.03 | 1.02 | 0.917 | 0.913 | 0.956 | 0.914 | 0.926 | 0.767 | 0.914 | 0.92 | 0.916 | 0.868 | 0.583 | 0.762 | 0.753 | 0.798 |
| NCI-H650 | 1.13 | 1.19 | 0.942 | 0.907 | 0.9 | 0.896 | 0.872 | 0.913 | 0.908 | 0.878 | 0.755 | 0.843 | 0.913 | 1.05 | 0.782 | 0.948 |
| NCI-H2085 | 0.869 | 0.901 | 0.658 | 0.831 | 0.967 | 0.92 | 0.892 | 1.01 | 0.807 | 0.515 | 0.599 | 0.483 | 0.443 | 0.436 | 0.42 | 0.469 |
| NCI-H1793 | 0.589 | 0.711 | 0.636 | 0.907 | 1.01 | 0.827 | 0.949 | 0.891 | 0.832 | 1.08 | 0.905 | 0.263 | 0.401 | 0.343 | 0.455 | 0.349 |
| LC-2-ad | 0.858 | 0.958 | 0.813 | 0.28 | 0.265 | 0.292 | 0.307 | 0.281 | 0.791 | 0.825 | 0.677 | 0.428 | 0.503 | 0.377 | 0.453 | 0.403 |
| COR-L 105 | 1.11 | 0.989 | 1.03 | 1.19 | 1.21 | 1.09 | 1.23 | 1.01 | 1.17 | 1 | 0.94 | 0.426 | 0.357 | 0.423 | 0.363 | 0.391 |
| NCI-H1355 | 0.924 | 0.86 | 0.822 | 1.06 | 1.09 | 1.07 | 0.963 | 1.02 | 0.781 | 0.835 | 0.757 | 0.388 | 0.491 | 0.339 | 0.411 | 0.552 |
| H3255 | 0.621 | 0.754 | 0.768 | 0.561 | 0.49 | 0.552 | 0.565 | 0.601 | 0.824 | 0.984 | 0.905 | 0.553 | 0.527 | 0.493 | 0.467 | 0.513 |
| NCI-H1993 | 0.761 | 0.654 | 0.555 | 0.579 | 0.504 | 0.59 | 0.628 | 0.599 | 0.792 | 0.715 | 0.67 | 0.759 | 0.773 | 0.738 | 0.838 | 0.861 |
| NCI-H1734 | 0.659 | 0.607 | 0.46 | 0.406 | 0.457 | 0.442 | 0.442 | 0.384 | 0.813 | 0.734 | 0.553 | 0.451 | 0.462 | 0.464 | 0.43 | 0.474 |
| HOP-62 | 1.18 | 0.777 | 0.937 | 0.334 | 0.29 | 0.3 | 0.275 | 0.314 | 0.996 | 0.906 | 0.945 | 0.775 | 0.577 | 0.68 | 0.752 | 0.623 |
| LOU-NH91 | 0.705 | 0.675 | 0.492 | 0.356 | 0.393 | 0.375 | 0.389 | 0.34 | 0.911 | 0.882 | 0.612 | 0.497 | 0.622 | 0.49 | 0.476 | 0.537 |
| NCI-H2228 | 0.7 | 0.729 | 0.494 | 0.375 | 0.354 | 0.377 | 0.358 | 0.398 | 0.525 | 0.872 | 0.629 | 0.473 | 0.471 | 0.355 | 0.299 | 0.481 |
| PC-14 | 0.902 | 0.969 | 0.99 | 0.131 | 0.136 | – | 0.131 | 0.113 | 0.982 | 0.968 | 0.955 | 0.606 | 0.702 | 0.704 | 0.67 | 0.62 |
| NCI-H1437 | 1.01 | 0.999 | 0.875 | 0.309 | 0.335 | 0.35 | 0.316 | 0.308 | 1.15 | 1.1 | 1.07 | 0.542 | 0.411 | 0.421 | 0.523 | 0.456 |
| NCI-H460 | 0.521 | 0.435 | 0.244 | 0.0659 | 0.064 | 0.0588 | 0.0727 | 0.0577 | 0.704 | 1 | 0.277 | 0.406 | 0.409 | 0.343 | 0.382 | 0.203 |
| NCI-H1666 | 0.805 | 1.01 | 0.632 | 0.947 | 0.881 | 0.87 | 0.851 | 0.878 | 0.858 | 0.831 | 0.483 | 0.554 | 0.424 | 0.437 | 0.505 | 0.404 |

| Cell Line | relative viability (kb NB 142-70 + Alpelisib; first compound 0.1 µM) | relative viability (kb NB 142-70 + Alpelisib; first compound 1 µM) | relative viability (kb NB 142-70 + Alpelisib; first compound 3.162 µM) | relative viability ([1]; first compound 0.02 µM) | relative viability ([1]; first compound 0.06325 µM) | relative viability ([1]; first compound 0.2 µM) | relative viability ([1]; first compound 0.6325 µM) | relative viability ([1]; first compound 2 µM) | relative viability ([2]; first compound 0.1 µM) | relative viability ([2]; first compound 1 µM) | relative viability ([2]; first compound 3.162 µM) | relative viability ([3]; first compound 0.02 µM) | relative viability ([3]; first compound 0.06325 µM) | relative viability ([3]; first compound 0.2 µM) | relative viability ([3]; first compound 0.6325 µM) | relative viability ([3]; first compound 2 µM) |
| --- | --- | --- | --- | --- | --- | --- | --- | --- | --- | --- | --- | --- | --- | --- | --- | --- |
| NCI-H1651 | 0.938 | 0.934 | 0.364 | 0.588 | 0.34 | 0.577 | 0.603 | 0.608 | 1.04 | 0.929 | 0.376 | 0.58 | 0.591 | 0.592 | 0.467 | 0.513 |
| NCI-H1755 | 0.968 | 0.915 | 0.929 | 0.69 | 0.509 | 0.453 | 0.394 | 0.434 | 1 | 0.991 | 1.06 | 0.384 | 0.487 | 0.454 | 0.435 | 0.479 |
| NCI-H661 | 0.812 | 0.526 | 0.613 | 0.882 | 0.954 | 0.929 | 0.915 | 0.907 | 0.561 | 0.607 | 0.602 | 0.453 | 0.389 | 0.357 | 0.325 | 0.407 |
| HARA | 0.786 | 0.726 | 0.516 | 0.253 | 0.241 | 0.258 | 0.245 | 0.246 | 1.05 | 0.975 | 0.631 | 0.418 | 0.355 | 0.486 | 0.568 | 0.559 |
| NCI-H596 | 0.454 | 0.483 | 0.347 | 0.521 | 0.455 | 0.548 | 0.494 | 0.441 | 1.13 | 1.02 | 0.837 | 0.412 | 0.458 | 0.425 | 0.404 | 0.407 |
| NCI-H1563 | 0.963 | 0.967 | 0.932 | 0.801 | 0.81 | 0.702 | 0.722 | 0.737 | 1.19 | 1.19 | 1.28 | 0.69 | 0.683 | 0.669 | 0.611 | 0.622 |
| NCI-H23 | 0.553 | 0.586 | 0.315 | 0.656 | 0.707 | 0.56 | 0.63 | 0.665 | 0.708 | 0.529 | 0.289 | 0.436 | 0.511 | 0.557 | 0.489 | 0.424 |
| LCLC-97TM1 | 0.236 | 0.245 | 0.181 | 0.181 | 0.176 | 0.183 | 0.178 | 0.135 | 0.192 | 0.187 | 0.172 | 0.29 | 0.215 | – | 0.178 | 0.187 |
| EPLC-272H | 0.906 | 0.899 | 0.509 | 0.275 | 0.395 | 0.308 | 0.356 | 0.315 | 1.07 | 1.05 | 0.599 | 0.28 | 0.378 | 0.285 | 0.344 | 0.319 |
| NCI-H1915 | 1.07 | 1.08 | 0.648 | 0.452 | 0.503 | 0.477 | 0.575 | 0.467 | 1.11 | 1.11 | 0.716 | 0.79 | 1.05 | 0.922 | 0.914 | 0.999 |
| NCI-H2405 | 0.743 | 0.802 | 0.723 | 1.04 | 1.04 | 1.26 | 1.04 | 1.16 | 0.969 | 0.834 | 0.641 | 0.415 | 0.494 | 0.499 | 0.375 | 0.481 |
| NCI-H322M | 0.813 | 0.815 | 0.882 | 0.562 | 0.617 | 0.535 | 0.643 | 0.668 | 0.89 | 1.03 | 0.938 | 0.516 | 0.515 | 0.521 | 0.523 | 0.483 |
| NCI-H1395 | 1.29 | 1.15 | 0.66 | 0.876 | 0.896 | 0.969 | 0.8 | 0.894 | 1.15 | 1.26 | 0.765 | 0.648 | 0.641 | 0.581 | 0.563 | 0.642 |
| NCI-H358 | 0.885 | 0.578 | 0.131 | 0.168 | 0.164 | 0.179 | 0.193 | 0.185 | 0.654 | 0.522 | 0.146 | 0.43 | 0.309 | 0.322 | 0.383 | 0.341 |
| NCI-H838 | 1.02 | 1.06 | 0.91 | 0.259 | 0.25 | 0.253 | 0.232 | 0.284 | 0.993 | 1.08 | 0.98 | 0.474 | 0.441 | 0.5 | 0.432 | 0.45 |
| CAL-12T | 1.22 | 1.5 | 0.644 | 1.11 | 1.2 | 1.2 | 1.12 | 0.97 | 0.859 | 0.869 | 1.03 | 0.392 | 0.617 | 0.481 | 0.404 | 0.475 |
